Results taken from patent US20040029886A1, “Dihalopropene compounds, processes for their preparation, compositions comprising them and their use as pesticides” (priority 2001, published 2004).

What was measured:
Assay type in all cases: in vivo
Parameters in all cases: key: compounds are considered to be active when, at a concentration of 500 ppm or less, their action on the harmful organisms is 50% or more
[1] = tested on: larvae of the diamondback moth (Plutella xylostella); assay: Example L: diamondback moth larvae on sprayed cabbage leaf; details: 500 ppm or less, after 4 days
Method: (§1) In Examples A to L below, compounds are considered to be active when, at a concentration of 500 ppm or less, their action on the harmful organisms is 50% or more.
A cabbage leaf was sprayed with an aqueous solution of the formulated preparation to be examined. After drying, the treated leaf was populated with larvae of the diamondback moth (Plutella xylostella). After 4 days of storage at about 25° C., the effect of the preparation on the larvae (mortality) was determined. The following examples were active: Nos. 27, 28, 45.

[2] = tested on: L2 larvae of the Egyptian cotton leaf worm (Spodoptera littoralis); assay: Example D: L2 larvae of Egyptian cotton leaf worm, Petri dish with culture medium; details: 500 ppm or less, after 6 days
Method: as §1
A Petri dish whose bottom was covered with filter paper and which contained about 5 ml of culture medium was prepared. Five L2 larvae of the Egyptian cotton leaf worm (Spodoptera littoralis) were counted into small beakers. 200 μl of an aqueous solution of the formulated preparation to be examined were pipetted into the beaker. The treated larvae were then poured into the Petri dish, and a further 200 μl of the aqueous solution were distributed over the culture medium. The Petri dish was closed and then stored at about 25° C. in a climatized chamber. After 6 days of storage, the effect of the preparation on the larvae (mortality) was determined. The following examples were active: Nos. 27, 28, 29, 39, 43, 45, 59.

[3] = tested on: L2 larvae of the sugar beet armyworm (Spodoptera exigua); assay: Example I: sugar beet armyworm L2 larvae on sprayed cotton leaves; details: 500 ppm or less, after 4 days
Method: as §1
Cotton plants were sprayed with an aqueous solution of the formulated preparation to be examined. After drying, leaves were cut off, placed into a Petri dish and populated with 5 L2 larvae of the sugar beet armyworm (Spodoptera exigua). After 4 days of storage at about 23° C., the effect of the preparation on the larvae (mortality) was determined. The following examples were active: Nos. 27, 28, 45, 59.

[4] = tested on: eggs of the American tobacco budworm (Heliothis virescens); assay: Example C: eggs of American tobacco budworm, Petri dish with culture medium; details: 500 ppm or less; eggs dipped 5 seconds, 200 μl on culture medium; after 6 days
Method: as §1
A Petri dish whose bottom was covered with filter paper and which contained about 5 ml of culture medium was prepared. Pieces of filter paper with about 30, one-day-old eggs of the American tobacco budworm (Heliothis virescens) were dipped for 5 seconds into an aqueous solution of the formulated preparation to be examined and subsequently placed in a Petri dish. A further 200 μl of the aqueous solution were spread over the culture medium. The Petri dish was closed and then stored at about 25° C. in a climatized chamber. After 6 days of storage, the effect of the preparation on the eggs and any larvae which may have hatched from these (mortality) was determined. The following examples were active: Nos. 6, 27, 28, 29, 31, 35, 39, 43, 45, 59, 97, 226, 227, 228, 229, 351, 356, 357, 592, 593, 595, 949, 1001, 1126, 1129, 1132.

[5] = tested on: L1 larvae of the codling moth (Carpocapsa pomonella); assay: Example J: codling moth L1 larvae on treated culture medium; details: 500 ppm or less, after 14 days
Method: as §1
Culture medium was mixed with an aqueous solution of the formulated preparation to be examined and populated with 10 L1 larvae of the codling moth (Carpocapsa pomonella). After 14 days of storage at about 23° C., the effect of the preparation on the larvae (mortality) was determined. The following examples were active: Nos. 28, 59.

CC(=NO)c1cc(OCC=C(Cl)Cl)cc(Cl)c1OCCCOc1ccc(C(F)(F)F)cn1 [compound 28]
active: effect of the preparation on the larvae (mortality) [1] | effect of the preparation on the larvae (mortality) [2] | effect of the preparation on the larvae (mortality) [3] | effect of the preparation on the eggs and any larvae hatched (mortality) [4] | effect of the preparation on the larvae (mortality) [5]
